Assay results from patent US12629370B2, “Treatment of prostate cancer” (Sumitomo Pharma Co., Ltd., priority 2016, dated 2026).

Legend:
[1] = test system: patients with advanced prostate cancer; assay: Example 8: treatment-emergent adverse events (safety population)
Procedure: The core tablets were coated with a film coating comprising hypromellose 2910 (21.36 mg), titanium dioxide (2.4 mg), and red ferric oxide (0.06 mg).
For patients receiving leuprolide acetate (leuprorelin), on-treatment study visits occurred at baseline (day 1, week 1), day 1 of weeks 2, 3, and 5, and then every 4 weeks until week 25, and then at 12 week intervals (week 37 and 49). Patients on leuprorelin received their final injection at week 37, day 1, and the week 49, day 1 visit was considered the end of leuprorelin exposure. Patients receiving leuprorelin at visits at 16 (EOT), 20 (follow-up visit), and 24 (EOS) weeks after the last leuprorelin injection.
Efficacy and safety analyses were conducted using a safety population (received ≥1 dose of study drug). […] Safety was assessed by recording the incidence, severity, and types of treatment-emergent adverse events; by physical examination (including slit lamp examination of the anterior eye); and by evaluating changes from baseline in weight, vital signs, 12-lead electrocardiogram (ECG), and clinical laboratory parameters. […] Adverse events were coded using the Medical Dictionary for Regulatory Activities version 19.0 and graded according to National Cancer Institute Common Terminology Criteria version 4.03 (Tables 7 and 8). Safety-related haematology, chemistry, and urinalysis measurements were taken at each study visit and analysed at a central laboratory (LabCorp). Phospholipidosis was assessed as part of the safety assessments.

[2] = test system: patients with intermediate-risk prostate cancer; assay: Example 9: quality of life (EORTC QLQ-C30, QLQ-PR25, AMS); assay type: in vivo, human
Procedure: Eligible male patients were aged ≥18 years with a histologically confirmed diagnosis of localized, intermediate-risk prostate cancer, for whom 6-month neoadjuvant and adjuvant androgen deprivation therapy (ADT) to external beam radiation therapy (EBRT) was indicated. The criteria for establishing intermediate-risk prostate cancer included the presence of one of the following, without any high-risk feature: T2b-T2c disease, Gleason score 7, or prostate-specific antigen (PSA) 10-20 ng/mL. Additional inclusion criteria included: EBRT scheduled to begin ≥12 weeks after baseline visit; screening serum testosterone >150 ng/dL (5.2 nmol/L); screening PSA concentration >2 ng/ml; body mass index ≥18.0 at screening or baseline (i.e., the subject's BMI prior to treatment commencing); Eastern Cooperative Oncology Group performance status of 0 or 1 at screening. Based on investigator discretion and clinical assessment of the patient's overall medical and disease status, participation was allowed for older patients with high-risk disease (e.g., based on Gleason score or tumor status) who were deemed likely to benefit from 6 months of neoadjuvant/adjuvant ADT. Most patients had intermediate-risk disease. However, a few patients, based on Gleason score or tumor, node, and metastasis staging system, were technically of higher than intermediate risk.
Both treatment arms received treatment for 24 weeks. Patients remained on treatment for at least 12 weeks before the start of external beam radiation treatment (EBRT), which was initiated for most patients between Week 13, Day 1 and Week 15, Day 1. EBRT began no later than day 1, week 17.
Quality of Life (QoL) was assessed via the core 30-item European Organisation for Research and Treatment of Cancer quality of life questionnaire (EORTC QLQ-C30), the 25-item prostate cancer module EORTC questionnaire (EORTC QLQ-PR25), and the aging male survey (AMS). QoL assessments were completed at screening, on day 1 of weeks 1, 5, 13, and 25, and at weeks 29, 33, and 37.

[3] = test system: serum FSH; assay: Example 7: serum FSH in healthy men; assay type: in vivo, human
Procedure: FSH, DHT, and insulin-like growth factor 1 (IGF-1; Parts 3 and 4 only) were measured in a subset of samples. Serum testosterone was assayed using a conventional immunoassay for screening (LLOQ=0.4 nmol/L). A validated LC/MS/MS method, with an LLOQ of 0.173 nmol/L and a ULOQ of 10.425 nmol/L, was used for all subsequent baseline (i.e., the subject's serum hormone levels prior to treatment commencing) and postdose measurements.

[4] = test system: serum testosterone; assay: Example 8: serum testosterone in men with advanced prostate cancer, versus leuprolide acetate; assay type: in vivo, human
Text: Eligible men were aged ≥18 years with a histologically confirmed diagnosis of prostate adenocarcinoma, and were candidates for ADT for the management of hormone-sensitive prostate cancer with one of the following clinical disease states: advanced localized disease not suitable for primary surgical or radiation therapy; evidence of PSA biochemical or clinical relapse following primary surgery or radiation therapy of curative intent; or newly diagnosed metastatic disease that was asymptomatic and without visceral involvement. […] Patients with advanced, localized MON1 or M1 disease with clinically significant symptoms or visceral involvement, who required immediate GnRH therapy, chemotherapy, or radiation therapy were not eligible for the trial.
Serum testosterone levels were measured at each visit.

[5] = from baseline (day 1) to week 25
[6] = Compound 1 80 or 120 mg QD after 320 mg load
[7] = Compound 1 Total, End of Treatment
[8] = Compound 1 Total, Week 49, Day 1

`CONC(=O)Nc1ccc(-c2sc3c(c2CN(C)C)c(=O)n(-c2ccc(OC)nn2)c(=O)n3Cc2c(F)cccc2F)cc1` [Compound 1, N-(4-(1-(2,6-difluorobenzyl)-5-((dimethylamino)methyl)-3-(6-methoxy-3-pyridazinyl)-2,4-dioxo-1,2,3,4-tetrahydrothieno[2,3-d]pyrimidin-6-yl)phenyl)-N′-methoxyurea] was tested, and the “Acute coronary syndrome, Grade ≥3” value ([1]; 80 mg QD) was 0 n (%), the “Death (Table 7)” value ([1]; 80 mg QD) was 1 (2) n (%) and the “Death, Grade ≥3 (Table 8)” value ([1]; 80 mg QD) was 0 n (%). For the same molecule, the “Sudden death, Grade ≥3” value ([1]; 80 mg QD) was 0 n (%), the “Acute coronary syndrome, Grade ≥3” value ([1]; 120 mg QD) was 1 (2) n (%) and the “Death (Table 7)” value ([1]; 120 mg QD) was 0 (0) n (%). For the same molecule, the “Death, Grade ≥3 (Table 8)” value ([1]; 120 mg QD) was 1 (2) n (%), the “Sudden death, Grade ≥3” value ([1]; 120 mg QD) was 1 (2) n (%) and the overall safety profile ([1]; in vivo) was “appeared similar to that seen in the smaller observational leuprorelin cohort”. For the same molecule, the “Hormonal treatment-related symptoms, Mean (SD) change” value [2, 5] was 13.4 (12.1), the “Sexual activity, Mean (SD) change” value [2, 5] was −19.7 (29.4) and the “Global health/QoL, Mean (SD) change” value ([2]; from baseline to week 36 (EOS)) was −7.7 (17.8). The “Hormonal treatment-related symptoms, Mean (SD) change” value ([2]; from baseline to week 36 (EOS)) was 8.5 (11.3), the “Sexual activity, Mean (SD) change” value ([2]; from baseline to week 36 (EOS)) was −7.3 (30.0) and the “Global health/QoL, Mean (SD) change” value ([2]; from week 25 to week 36) was 2.3 (16.6). For the same molecule, the “Hormonal treatment-related symptoms, Mean (SD) change” value ([2]; from week 25 to week 36) was −5.0 (10.3), the “Sexual activity, Mean (SD) change” value ([2]; from week 25 to week 36) was 12.1 (21.8) and the “QOL (AMS and sexual activity scores) from EOT through EOS” value ([2]; in vivo) was “appeared to improve more in the Compound 1 than the degarelix group”. The “time postdose at which mean serum FSH began to decrease” value ([3]; Part 1 single doses 80-360 mg) was 2 h, the “time postdose of lowest mean serum FSH” value ([3]; Part 1 single doses 80-360 mg) was 48 h and the “mean serum FSH at end of 16 days” value ([3]; Part 2, 80 mg, baseline 6.07 IU/L) was 0.67 IU/L. The “mean serum FSH at end of 16 days” value ([3]; Part 2, 180 mg, baseline 3.88 IU/L) was 0.33 IU/L, the “Testosterone Mean (Std Dev)” value ([4]; 80 mg QD, Baseline) was 13.755 (4,7256) nmol/L and the “Testosterone Median” value ([4]; 80 mg QD, Baseline) was 12.700 nmol/L. For the same molecule, the “Testosterone Mean (Std Dev)” value ([4]; 80 mg QD, End of Study) was 6.933 (6.4298) nmol/L, the “Testosterone Median” value ([4]; 80 mg QD, End of Study) was 5.340 nmol/L and the “Testosterone Mean (Std Dev)” value ([4]; 80 mg QD, End of Treatment) was 7.211 (9.2178) nmol/L. The “Testosterone Median” value ([4]; 80 mg QD, End of Treatment) was 3.125 nmol/L, the “Testosterone Mean (Std Dev)” value ([4]; 80 mg QD, Follow-Up) was 11.004 (5.9971) nmol/L and the “Testosterone Median” value ([4]; 80 mg QD, Follow-Up) was 13.185 nmol/L. The “Testosterone Median” value ([4]; 80 mg QD, Week 49, Day 1) was 0.380 nmol/L, the “Testosterone Median” value ([4]; 120 mg QD, Baseline) was 14.350 nmol/L and the Median testosterone ([4]; 120 mg QD, EOS (12 weeks after stopping)) was 322.8 ng/dL. The Median testosterone ([4]; 120 mg QD, EOT (4 weeks after end of treatment)) was 72.9 ng/dL, the “Testosterone Mean (Std Dev)” value ([4]; 120 mg QD, End of Study) was 9.565 (7.6479) nmol/L and the “Testosterone Median” value ([4]; 120 mg QD, End of Study) was 11.210 nmol/L. For the same molecule, the “Testosterone Mean (Std Dev)” value ([4]; 120 mg QD, End of Treatment) was 3.592 (3.7809) nmol/L, the “Testosterone Median” value ([4]; 120 mg QD, End of Treatment) was 2.530 nmol/L and the “Testosterone Median” value ([4]; 120 mg QD, Follow-Up) was 11.450 nmol/L. The Median testosterone ([4]; 120 mg QD, Follow-up visit (8 weeks after stopping)) was 329.8 ng/dL, the “Testosterone Mean (Std Dev)” value ([4]; 120 mg QD, Week 49, Day 1) was 0.443 (0.2745) nmol/L and the “Testosterone Median” value ([4]; 120 mg QD, Week 49, Day 1) was 0.365 nmol/L. For the same molecule, the “serum testosterone after stopping treatment” value ([4]; 4 weeks after the end of treatment) was over 50 ng/dL, the “visit by which average serum testosterone decreased below medical castration threshold of 50 ng/dL” value [4, 6] was “Day 4” and the “visit by which average serum testosterone decreased below profound castration threshold of 20 ng/dL” value [4, 6] was “Week 5 Day 1”. The Testosterone Mean (Std Dev) ([4]; Compound 1 Total, Baseline) was 14.4 nmol/L, the “Testosterone Median” value ([4]; Compound 1 Total, Baseline) was 13.600 nmol/L and the “Testosterone Mean (Std Dev)” value ([4]; Compound 1 Total, End of Study) was 8.249 (7.0702) nmol/L. The “Testosterone Median” value ([4]; Compound 1 Total, End of Study) was 7.425 nmol/L, the “Testosterone Mean (Std Dev)” value [4, 7] was 5.039 (6.6432) nmol/L and the “Testosterone Median” value [4, 7] was 2.530 nmol/L. For the same molecule, the “Testosterone Mean (Std Dev)” value ([4]; Compound 1 Total, Follow-Up) was 12.094 (5.9829) nmol/L, the “Testosterone Median” value ([4]; Compound 1 Total, Follow-Up) was 11.970 nmol/L and the “Testosterone Mean (Std Dev)” value [4, 8] was 0.487 (0.3867) nmol/L. For the same molecule, the “Testosterone Median” value [4, 8] was 0.380 nmol/L, the median serum testosterone ([4]; Compound 1 groups, weeks 5-49) was under 20 ng/dL and the “testosterone surge or tumor flare after treatment initiation” value ([4]; in vivo) was “No serum testosterone surge or resultant tumor flare occurred”.
